Test results reported in ChEMBL document CHEMBL1201862, “PubChem BioAssay data set” (2004).
“And” between values parts separate entries of the source, which are not always exact repeats. Identical values can stand only once.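 Where inhibition never reached the appropriate level, the endpoint shown equals the highest concentration tested. Otherwise, values were interpolated linearly from a five-concentration, 48-hour dose response in 96-well plates. At the GI50, growth is halved.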 The source made the active and inactive calls. Rule as the data show it: active = GI50 up to about 1.1 µM and inactive = higher.

What was measured:
Test in all cases: NCI-60 cell line screen, 48 h
786-0 = tested on: 786-0
A498 = tested on: A498
A549 = tested on: A549
ACHN = tested on: ACHN
BT-549 = tested on: BT-549
CAKI-1 = tested on: CAKI-1
COLO 205 = tested on: COLO 205
DU-145 = tested on: DU-145
EKVX = tested on: EKVX
HCC 2998 = tested on: HCC 2998
HCT-116 = tested on: HCT-116
HCT-15 = tested on: HCT-15
HOP-62 = tested on: HOP-62
HOP-92 = tested on: HOP-92
HT-29 = tested on: HT-29
IGROV-1 = tested on: IGROV-1
K562 = tested on: K562
KM12 = tested on: KM12
M14 = tested on: M14
MCF7 = tested on: MCF7
MDA-MB-231 = tested on: MDA-MB-231
MDA-MB-435 = tested on: MDA-MB-435
MDA-N = tested on: MDA-N
MOLT-4 = tested on: MOLT-4
Malme-3M = tested on: Malme-3M
NCI-H226 = tested on: NCI-H226
NCI-H23 = tested on: NCI-H23
NCI-H460 = tested on: NCI-H460
NCI-H522 = tested on: NCI-H522
NCI/ADR-RES = tested on: NCI/ADR-RES
OVCAR-4 = tested on: OVCAR-4
OVCAR-5 = tested on: OVCAR-5
PC-3 = tested on: PC-3
RPMI-8226 = tested on: RPMI-8226
SF-295 = tested on: SF-295
SK-MEL-28 = tested on: SK-MEL-28
SK-MEL-2 = tested on: SK-MEL-2
SK-MEL-5 = tested on: SK-MEL-5
SK-OV-3 = tested on: SK-OV-3
SN12C = tested on: SN12C
SNB-19 = tested on: SNB-19
SNB-75 = tested on: SNB-75
SW-620 = tested on: SW-620
TK-10 = tested on: TK-10
U-251 = tested on: U-251
UACC-257 = tested on: UACC-257
UACC-62 = tested on: UACC-62
UO-31 = tested on: UO-31
OVCAR-8 = tested on: OVCAR-8
CCRF-CEM = tested on: CCRF-CEM
OVCAR-3 = tested on: OVCAR-3
HL-60 = tested on: HL-60
LOX IMVI = tested on: LOX IMVI
RXF 393 = tested on: RXF 393
SF-268 = tested on: SF-268
SF-539 = tested on: SF-539
SR = tested on: SR

## Clc1ccc(Nc2nnc(CCCCCCCCc3nnc(Nc4ccc(Cl)cc4)o3)o2)cc1
786-0
  GI50: 24.5 µM (inactive)
A498
  GI50: 37.1 µM (inactive)
A549
  GI50: 28.1 µM (inactive)
ACHN
  GI50: 38.8 µM (inactive)
BT-549
  GI50: 31.9 µM (inactive)
CAKI-1
  GI50: 38.3 µM (inactive)
COLO 205
  GI50: 39.9 µM (inactive)
DU-145
  GI50: 25.5 µM (inactive)
EKVX
  GI50: 39 µM (inactive)
HCC 2998
  GI50: 36.4 µM (inactive)
HCT-116
  GI50: 17.3 µM (inactive)
HCT-15
  GI50: 32.6 µM
HOP-62
  GI50: 37.9 µM (inactive)
HOP-92
  GI50: 23.8 µM (inactive)
HT-29
  GI50: 32 µM (inactive)
IGROV-1
  GI50: 8 µM (inactive)
K562
  GI50: 7.35 µM (inactive)
KM12
  GI50: 23.4 µM (inactive)
M14
  GI50: 36 µM (inactive)
MCF7
  GI50: 39 µM (inactive)
MDA-MB-231
  GI50: 44.2 µM (inactive)
MDA-MB-435
  GI50: 42.7 µM (inactive)
MDA-N
  GI50: 33.3 µM (inactive)
MOLT-4
  GI50: 10.9 µM (inactive)
Malme-3M
  GI50: 11 µM (inactive)
NCI-H226
  GI50: 46 µM (inactive)
NCI-H23
  GI50: 27.6 µM (inactive)
NCI-H460
  GI50: 33.9 µM (inactive)
NCI-H522
  GI50: 21.5 µM (inactive)
NCI/ADR-RES
  GI50: 36 µM (inactive)
OVCAR-4
  GI50: 51.6 µM (inactive)
OVCAR-5
  GI50: 23.7 µM (inactive)
PC-3
  GI50: 38.1 µM (inactive)
RPMI-8226
  GI50: 21.6 µM (inactive)
SF-295
  GI50: 35.8 µM (inactive)
SK-MEL-28
  GI50: 48.6 µM (inactive)
SK-MEL-2
  GI50: 50.8 µM (inactive)
SK-MEL-5
  GI50: 23.1 µM (inactive)
SK-OV-3
  GI50: 35.7 µM (inactive)
SN12C
  GI50: 45.7 µM (inactive)
SNB-19
  GI50: 26.3 µM (inactive)
SNB-75
  GI50: 82.2 µM (inactive)
SW-620
  GI50: 48.5 µM (inactive)
TK-10
  GI50: 55.8 µM (inactive)
U-251
  GI50: 38.3 µM (inactive)
UACC-257
  GI50: 37.4 µM (inactive)
UACC-62
  GI50: 21.7 µM (inactive)
UO-31
  GI50: 36.8 µM (inactive)

## CC(=O)OCC1OC(n2c3c(cc(C#N)c2=S)CCCC3)C(OC(C)=O)C(OC(C)=O)C1OC(C)=O (stereo not drawn)
A498
  GI50: > 100 µM (inactive)
A549
  GI50: > 91.4 µM (inactive)
ACHN
  GI50: > 64.4 µM (inactive)
BT-549
  GI50: > 100 µM (inactive)
COLO 205
  GI50: > 100 µM (inactive)
DU-145
  GI50: > 100 µM (inactive)
EKVX
  GI50: 70 µM (inactive)
HCT-15
  GI50: > 100 µM
IGROV-1
  GI50: 57.8 µM (inactive)
M14
  GI50: > 100 µM (inactive)
MDA-MB-231
  GI50: > 100 µM (inactive)
MDA-MB-435
  GI50: > 100 µM (inactive)
MDA-N
  GI50: > 100 µM (inactive)
Malme-3M
  GI50: > 100 µM (inactive)
NCI-H226
  GI50: > 100 µM (inactive) and > 80 µM (inactive)
NCI-H23
  GI50: > 100 µM (inactive) and 62.5 µM (inactive)
NCI-H460
  GI50: > 100 µM (inactive) and 50.9 µM (inactive)
NCI-H522
  GI50: 42.8 µM (inactive) and 40.8 µM (inactive)
NCI/ADR-RES
  GI50: > 74.1 µM (inactive)
OVCAR-4
  GI50: > 100 µM (inactive)
OVCAR-5
  GI50: > 100 µM (inactive)
OVCAR-8
  GI50: > 60.5 µM (inactive)
SK-MEL-28
  GI50: > 100 µM (inactive)
SK-MEL-5
  GI50: > 76.4 µM (inactive)
SN12C
  GI50: > 100 µM (inactive)
TK-10
  GI50: > 100 µM (inactive)
UACC-257
  GI50: > 100 µM (inactive)
UO-31
  GI50: > 100 µM (inactive)

## CC(=O)OC1COC(n2c3ccccc3c3ccc4c5ccccc5[nH]c4c32)C(OC(C)=O)C1OC(C)=O (stereo not drawn)
A498
  GI50: 32.8 µM (inactive)
A549
  GI50: 44.8 µM (inactive)
BT-549
  GI50: 89.3 µM (inactive)
CAKI-1
  GI50: 29.2 µM (inactive)
CCRF-CEM
  GI50: 70.3 µM (inactive)
COLO 205
  GI50: 39.1 µM (inactive)
HCC 2998
  GI50: 61.8 µM (inactive)
HCT-116
  GI50: 65.9 µM (inactive)
HCT-15
  GI50: 70 µM
HOP-62
  GI50: 22.9 µM (inactive)
HOP-92
  GI50: 30.1 µM (inactive)
HT-29
  GI50: 22.3 µM (inactive)
IGROV-1
  GI50: 0.0512 µM (active)
K562
  GI50: 0.6 µM (active)
KM12
  GI50: 17.8 µM (inactive)
MDA-MB-435
  GI50: 39.1 µM (inactive)
MDA-N
  GI50: 53.3 µM (inactive)
MOLT-4
  GI50: > 100 µM (inactive)
NCI-H23
  GI50: 36.8 µM (inactive)
NCI-H460
  GI50: 21.3 µM (inactive)
NCI-H522
  GI50: 18.2 µM (inactive)
OVCAR-3
  GI50: 27 µM (inactive)
OVCAR-4
  GI50: 37.6 µM (inactive)
OVCAR-5
  GI50: 23.4 µM (inactive)
PC-3
  GI50: 27.2 µM (inactive)
RPMI-8226
  GI50: 95.7 µM (inactive)
SF-295
  GI50: 15.1 µM (inactive)
SK-MEL-28
  GI50: 37.8 µM (inactive)
SK-MEL-2
  GI50: 58.1 µM (inactive)
SK-MEL-5
  GI50: 36 µM (inactive)
SK-OV-3
  GI50: 18.6 µM (inactive)
SNB-19
  GI50: 61.4 µM (inactive)
SNB-75
  GI50: 0.29 µM (active)
SW-620
  GI50: 41.2 µM (inactive)
U-251
  GI50: 29.2 µM (inactive)
UACC-257
  GI50: > 100 µM (inactive)
UACC-62
  GI50: 67.9 µM (inactive)
UO-31
  GI50: 38.6 µM (inactive)

## CN(C)C1(c2cc3ccccc3s2)CCCCC1
786-0
  GI50: 22.2 µM (inactive)
A498
  GI50: 32.8 µM (inactive)
A549
  GI50: 51.2 µM (inactive)
ACHN
  GI50: 51.2 µM (inactive)
BT-549
  GI50: 64.9 µM (inactive)
CAKI-1
  GI50: 61.5 µM (inactive)
CCRF-CEM
  GI50: < 0.01 µM (active)
COLO 205
  GI50: 26.4 µM (inactive)
DU-145
  GI50: 54.8 µM (inactive)
EKVX
  GI50: > 100 µM (inactive)
HCC 2998
  GI50: 22.9 µM (inactive)
HCT-116
  GI50: 33.9 µM (inactive)
HCT-15
  GI50: 37.4 µM
HL-60
  GI50: < 0.01 µM (active)
HOP-62
  GI50: 58.1 µM (inactive)
HOP-92
  GI50: 1.79 µM (inactive)
HT-29
  GI50: 33 µM (inactive)
IGROV-1
  GI50: 36.1 µM (inactive)
K562
  GI50: 18 µM (inactive)
KM12
  GI50: 36.5 µM (inactive)
LOX IMVI
  GI50: 22.5 µM (inactive)
M14
  GI50: 17.5 µM (inactive)
MCF7
  GI50: 48.6 µM (inactive)
MDA-MB-231
  GI50: 65.6 µM (inactive)
MDA-MB-435
  GI50: 35.7 µM (inactive)
MDA-N
  GI50: 32.2 µM (inactive)
MOLT-4
  GI50: 19.2 µM (inactive)
NCI-H226
  GI50: 44.9 µM (inactive)
NCI-H23
  GI50: 49.8 µM (inactive)
NCI-H460
  GI50: 29.2 µM (inactive)
NCI-H522
  GI50: 16.7 µM (inactive)
NCI/ADR-RES
  GI50: 44.1 µM (inactive)
OVCAR-3
  GI50: 48.6 µM (inactive)
OVCAR-4
  GI50: 47.2 µM (inactive)
OVCAR-5
  GI50: 22.5 µM (inactive)
OVCAR-8
  GI50: 51.3 µM (inactive)
PC-3
  GI50: 28.8 µM (inactive)
RXF 393
  GI50: 25.5 µM (inactive)
SF-268
  GI50: 18.8 µM (inactive)
SF-295
  GI50: 26.6 µM (inactive)
SF-539
  GI50: 50.1 µM (inactive)
SK-MEL-2
  GI50: 24.3 µM (inactive)
SK-MEL-5
  GI50: 17.4 µM (inactive)
SK-OV-3
  GI50: 39.5 µM (inactive)
SN12C
  GI50: 53.2 µM (inactive)
SNB-19
  GI50: 49 µM (inactive)
SNB-75
  GI50: 32.6 µM (inactive)
SR
  GI50: 18 µM (inactive)
SW-620
  GI50: 0.125 µM (active)
TK-10
  GI50: 47.2 µM (inactive)
U-251
  GI50: 43.6 µM (inactive)
UACC-257
  GI50: 28.1 µM (inactive)
UACC-62
  GI50: 20.5 µM (inactive)
UO-31
  GI50: 30.9 µM (inactive)
